{"source": "patent US20200392181A1", "about": "“PEPTIDE COMPOSITIONS AND RELATED METHODS” (Allegro Pharmaceuticals, LLC, priority 2017, published 2020)", "tested_on": "ischemia-induced retinal neovascularization", "assay": "Mouse model of retinopathy of prematurity (ROP), ischemia-induced retinal neovascularization", "format": "in vivo, C57BI/6 mice", "settings": "addition of three parts taurine to one part of the peptide", "procedure": "Each test compound was prepared in sterile water for injection, containing 0.08 mg/100 μL of sodium chloride and 0.005 mg/100 μL of trisodium citrate, the concentration of the peptide was at a concentration of 2.0 mg/100 μL and pH=2.7 and dispensed by sterile filtration into sterile vials. The Taurine test compound was obtained from Sigma Aldrich company, which was >99% pure, and prepared the same way as mentioned previously, having a concentration of 3.0 mg/100 μL. […]\nTo screen the test compounds for activity against ischemia-induced retinal neovascularization, the well-established model of retinopathy of prematurity (ROP) in mice was used. Litters of C57BI/6 mice were placed in 75% oxygen at postnatal day (P) 7, returned to room air at day (P) 12. The Pups were randomly assigned to treatment groups of 4 to 10 animals per group. The pups were treated as follows: Treatment eyes were treated by intravitreal injection of 1.0 microliters of solution containing 20 micrograms of Test Compound.\nOn post-natal day 17, 5 days after intravitreal injection, the animals were sacrificed, the retinas were flat mounted and the area of neovascularization in each retina was determined by Fluorescein-dextran image analysis. […]", "data": [{"substance": "Glycinyl-Arginyl-Glycinyl-Cysteic(Acid)-Threonyl-Proline [ALG-1001]", "values": [{"measurement": "neovascularization suppressing activity on addition of taurine", "value": "improves the neovascularization suppressing activity"}]}]}
